Source: patent US20250186403A1 (ARIZONA BOARD OF REGENTS ON BEHALF OF THE UNIVERSITY OF …, priority 2022, published 2025)
Several values for one entry are separate records, joined by “and”; a condition that tells them apart may be missing. Equal entries are not always repeated.

Key:
Cne-WT and Cne-Mut = assay: Resazurin-based HTS growth assay, dose-response IC50; assay type: cell-based, Cryptococcus neoformans; conditions: 24 h
Procedure: HTS assay: A resazurin-based growth assay was developed for primary screening, employing two strains of Cne, the Cne-WT with natural intein and Cne-Mut, the mutant strain without intein. The assay was first standardized in 96 well formats and later optimized for 384 well plates. The HTS was done at ICCB-Longwood screening facility, Harvard University, Boston, USA. For HTS, the fungal cells were grown in SD broth overnight and diluted in SD broth to an optical density (OD) 0.5 at 600 nm. The cell suspension is further diluted 1:10 in RPMI 1640 media with 0.165 M MOPS, 2% glucose (RPMI-MOPS) so that the final OD will be 0.05. […] The conversion of resazurin to resorufin by live cells were estimated by reading fluorescence at Ex 550 nm and Em 590 nm using a plate reader (EnVision, Perkin Elmer). Additionally, the absorbance was also read at 600 nm using the plate reader (EnVision, Perkin Elmer). […] The ratio of fluorescence reading in Cne-WT and Cne-Mut was used to advance positive compounds.
Concentration series (0.02 to 50 µM) of test compounds and equalizing volume of DMSO were dispensed using a liquid handler (D300 e, Hewlett Packard) to the 384 well plates. Following the addition of Cne cell suspension, the assay plates were incubated for 24 h, and fluorescence readings of resorufin were taken as explained for single concentration screening.

[1] = tested on: Cga split-cfGFP-Prp8 intein protein; assay: Split GFP-Prp8 intein splicing assay (SDS-PAGE); assay type: biochemical, Cryptococcus gattii; conditions: vs DMSO control, 30 μM protein, 24 h
Procedure: TCEP is added to a final concentration of 100 µM and incubated for 24 h. The substrate Nano-Glo luciferase (Promega) was added, and the resulting luminescence was read. IC50 was calculated using GraphPad prism. […] TCEP was added to a concentration of 1 mM and incubated for 24 h. From this reaction mixture, 10 μl was mixed with an equal volume of 2×SDA-PAGE loading dye and loaded onto 12% SDS-PAGE gel without boiling the sample. The gel was scanned with UV using Chemidoc (Bio Rad), and band intensities were quantified using Image Lab software. […] Cells were harvested and washed in PBS, lysed with bead lyser, and centrifuged at 10,000 rpm. An equal quantity of protein (50 μg) from each treatment was loaded onto 12% SDS-PAGE and blotted onto the NC membrane, blocked with 5% skimmed milk. The membrane was probed with anti-prp8 intein rabbit polyclonal sera, followed by goat anti-rabbit HRP antibody. Signals were developed using a chemiluminescent kit. The density of the spliced intein bands (˜20 kDa) were quantified using Image lab software. A band at ˜130 kDa is uncharacterized, as explained below. NC: nitrocellulose. Abs: absorbance […]
TCEP to a final concentration of 1 mM was added to induce splicing and further incubated at RT for 24 h. […] The band densities were quantified using image lab software.

[2] = tested on: recombinant Cne-Prp8 intein; assay: Thermal shift assay; assay type: binding, Cryptococcus neoformans
Procedure: The Tm values were calculated by Thermal shift software. […] The assay was repeated three times. […]
Each treatment was done in quadruplicate. The mixture was incubated at room temperature for an hour before transferring to the QuantStudio 5 real-time PCR system (Applied Biosystems) and run with an increasing temperature from 20° C. to 90° C. The temperature at which there was 50% of the peak fluorescence (50% denaturation) was considered as Tm. The analysis was done using the Thermal Shift Assay software (Thermo Fischer Scientific). A graph was drawn using the GraphPad prism Version 9.1.0 after normalizing the fluorescent values. The treatment groups were compared with Student's t-test.

[3] = Cytotoxicity (Cell Counting Kit-8); assay type: cell-based, murine; conditions: mouse, PMA-differentiated RAW 264.7 macrophage cells, PMA-differentiated RAW 264.7 cells
Procedure: FIGS. 4A, 4B, and 4C show in vitro and in vivo toxicity. […] A549 and RAW 264.7 cells were grown in 96 well plates till 70% confluent. RAW 264.7 cells were differentiated into macrophages using PMA. […] The cell viability was estimated by Cell Counting Kit-8 (GlpBio, CA, USA), and absorbance was read at 450 nm using microplate reader Synergy H1 (BioTek). CC50 was calculated by GraphPad prism. […] Abs: absorbance. […] Bodyweight and other parameters were monitored daily (Table 3).
Cells were seeded in 96 well plates at 1.5×10^4 cells/well of 96 well plates in DMEM media and incubated at a CO2 incubator at 37° C. for 24 h. For differentiation to macrophages, the media was replaced with fresh media containing 100 nM PMA and further incubated for 48 h in a CO2 incubator.

CNc1ccc2oc(C[C@H]3O[C@@]4(CC[C@H]3C)O[C@H]([C@H](C)C(=O)c3ccc[nH]3)[C@H](C)C[C@H]4C)nc2c1C(=O)O [CMN, calcimycin]
difference in IC50 (Cne-Mut vs Cne-WT) (Cne-WT and Cne-Mut): 2.5 fold | splicing of split GFP-Prp8 intein [1]: inhibited with CMN dose-dependently | ΔTm difference between CMN and DMSO ([2]; 1.2 µM CMN): 3 °C | Tm of CnePrp8 intein ([2]; with 1.2 µM CMN (DMSO control 50.8±0.2)): 53.8±0.2 °C | CC50 at 48 h [3]: 8.6 µM and 4.5 µg/mL
